The text below walks through data of PubChem BioAssay AID1996.

In brackets after ≈: the same amount, converted by molar mass.

For the data set the following is noted: buffer; pH 7.4; 200.0 µM.
The compound `CCOC(=O)c1oc2nc3c(cc2c1N)CCCC3` displayed a solubility (kinetic) of 10.4 µg/mL (≈ 40 µM).

`COc1ccc(NC(=O)CNC(=O)c2c(C)nn(C)c2Cl)cc1` returned a solubility (kinetic) above 50.5 µg/mL. Next, `Cl.O=[N+]([O-])c1ccccc1OCCCN1CCc2ccccc2C1`: above 52.3 µg/mL; `O=C(COC(=O)CNC(=O)c1ccccc1)NCc1ccc2c(c1)OCO2`: above 55.6 µg/mL; `Cc1cc(=O)[nH]c(SCC(=O)NC2CCCCC2)n1`: 32.3 µg/mL (≈ 115 µM). Next, `CCCCOc1ccc(C(=O)NNC(=O)c2cnccn2)cc1OC`: above 51.7 µg/mL; `O=S(=O)(NCc1ccco1)c1cnc(Cl)c(Cl)c1`: above 46.1 µg/mL. As for `Clc1cc(Cl)cc(Nc2ncnc(-n3cccc3)n2)c1`, the solubility (kinetic) is below 0.1 µg/mL. Next, `COc1ccc(CCNC(=O)c2c(C)nc3ccccn23)cc1`: 43 µg/mL (≈ 139 µM); `O=C(COc1ccc(NC(=O)c2ccccc2)cc1)c1ccccc1`: 1.1 µg/mL (≈ 3.32 µM). Next, `Cc1ccc(NC(=O)COC(=O)Cn2cnc3c2c(=O)n(C)c(=O)n3C)cc1`: above 57.8 µg/mL; `Cc1ccc(N2CC(C(=O)Nc3cccnc3)CC2=O)cc1Cl` (configuration not stated): 45.8 µg/mL (≈ 139 µM); `COc1ccc(/C=C/C(=O)O)cc1S(=O)(=O)NCc1ccco1`: 48.8 µg/mL (≈ 145 µM).

For the compound `COc1cc2[nH]c(C(=O)Nc3ccc(F)cc3)cc2c(OC)c1OC`, the solubility (kinetic) stood at 2.4 µg/mL (≈ 6.97 µM).

In turn, `COc1ccc(CNC(=O)c2sc(=S)n(-c3ccccc3)c2N)cc1` registered a solubility (kinetic) of 0.7 µg/mL (≈ 1.88 µM). `CCOC(=O)NC(N(O)c1cccc(Cl)c1)C(Cl)(Cl)Cl` (configuration not stated) displayed a solubility (kinetic) of 37.1 µg/mL (≈ 102 µM). `CCC(NC(=S)NCc1ccc(F)cc1)c1ccccc1` (configuration not stated) displayed a solubility (kinetic) of 3.4 µg/mL (≈ 11.2 µM). The compound `COc1ccc(C)cc1S(=O)(=O)Nc1ccncc1` showed a solubility (kinetic) above 41.7 µg/mL. With `Cc1ccc(S(=O)(=O)CCC(=O)Nc2sccc2C(N)=O)cc1`, the kinetic solubility was above 52.9 µg/mL.

`Nc1ccc2nc(-c3cccc(-c4nc5ccc(N)cc5[nH]4)n3)[nH]c2c1` returned a kinetic solubility of 21.5 µg/mL (≈ 63 µM). For `COc1ccc(-n2c(SCC(N)=O)nnc2-c2ccco2)cc1` the value was above 49.6 µg/mL.

`COc1cc(C(=O)OCC(=O)N2CCCCCC2)c([N+](=O)[O-])cc1OC` came in with a kinetic solubility above 55 µg/mL. Next, `CC(C)C(NS(=O)(=O)c1ccccc1)C(=O)N1CCCCCC1` (configuration not stated): above 50.8 µg/mL. Next, `CCc1noc(C)c1C(=O)NCCc1ccccc1`: above 38.7 µg/mL; `Cc1ccc2c(c1)C(c1ccccc1)=NCC(=O)N2C`: above 39.6 µg/mL; `CC(C)C[C@H](NC(=O)N1CCCCCC1)C(=O)O`: above 38.5 µg/mL. For `Cc1c(CCC(=O)NC2CC2)c(=O)oc2cc(O)ccc12` the value was above 43.1 µg/mL; for `O=C(CNC(=O)c1ccco1)NNC(=O)c1ccc(Br)cc1`, above 54.9 µg/mL; for `COc1ccc(C2(C)CC(C)(C)Nc3ccccc32)cc1` (configuration not stated), 5.7 µg/mL (≈ 20.3 µM). Consider `COC(=O)CN1C(=O)N/C(=C/c2ccc(OC)cc2)C1=O`, for which the kinetic solubility is 17.4 µg/mL (≈ 59.9 µM). `CC1CN(c2ccc([N+](=O)[O-])c(N3CCCCC3)c2)CCN1` (configuration not stated) had a solubility (kinetic) of 42.4 µg/mL (≈ 139 µM). Next, `CN(C)c1ccc(C(=O)NCc2ccc3c(c2)CCO3)cc1`: 34.3 µg/mL (≈ 116 µM); `CC(Nc1cccc(F)c1)C(=O)Nc1ccc(S(N)(=O)=O)cc1` (configuration not stated): above 50.6 µg/mL; `COc1ccccc1NS(=O)(=O)c1cc(NC(=O)C2CCCO2)ccc1C` (configuration not stated): above 58.6 µg/mL.

For `CN(Cc1ccccc1)C(=O)COc1ccc(C(C)(C)C)cc1`, the solubility (kinetic) was below 0.7 µg/mL.

As for `O=C(CN1CCc2ccccc2C1)Nc1ccccc1F`, the kinetic solubility was 39.4 µg/mL (≈ 139 µM). For `COC(=O)c1sc(NC(=O)c2ccncc2)nc1C` the value was 27.3 µg/mL (≈ 98.4 µM); for `Cc1cc(C)c(NC(=O)COC(=O)C2CCCCC2)c(C)c1`, 5.6 µg/mL (≈ 18.5 µM); for `Cc1cc(C)n(CC(=O)NCCC2=CCCCC2)n1`, above 39.2 µg/mL. For `COc1ccc(/C=C2\SC(=N)N(c3ccc(F)cc3)C2=O)cc1OC` the value was 3.8 µg/mL (≈ 10.6 µM). With `NC(N)=NC(N)=Nc1ccccc1`, the kinetic solubility is above 26.6 µg/mL. Next, `Cn1c(NC2CCCCC2)cc(=O)n(C)c1=O`: above 35.6 µg/mL. Next, `CC1CCN(C(=S)NC(=O)c2ccc(C(C)(C)C)cc2)CC1`: 3.1 µg/mL (≈ 9.73 µM). For `CCCC(=O)Nc1nc(C)c(C(C)=O)s1` the value was above 33.9 µg/mL; for `COc1cccc(CNc2ncc(-c3ccccc3)n2C)c1`, 32.9 µg/mL (≈ 112 µM). Regarding `O=C(COc1ccc(-c2nnco2)cc1)N1CCOCC1`, the kinetic solubility is above 43.4 µg/mL. In turn, `CN1CC(C(=O)c2ccc(F)cc2)C(c2c(F)cccc2Cl)C1` (configuration not stated) yielded a kinetic solubility of 40.9 µg/mL (≈ 122 µM). The compound `Cc1cc(C)c(S(=O)(=O)NCc2cccnc2)cc1C` returned a kinetic solubility above 43.6 µg/mL.

The compound `COc1cc(C(=O)O/N=C2\C=CC(=O)C(C)=C2)cc(OC)c1OC` gave a kinetic solubility above 49.7 µg/mL.

Consider `CN(C(=O)c1ccc(Br)o1)C1CCCCC1`, for which the kinetic solubility was found to be 32.2 µg/mL (≈ 113 µM). With `Cc1oc(S(=O)(=O)N2CCCC2)cc1C(=O)Nc1ccc(F)cc1`, the solubility (kinetic) is 1.5 µg/mL (≈ 4.26 µM). For the compound `C=CCSc1nc(=O)n2ccc(C)cc2n1`, the kinetic solubility was 31.7 µg/mL (≈ 136 µM). For `COC(=O)c1ccc(/C=C/C(=O)OCC(=O)c2ccc[nH]2)cc1` the value was 6.8 µg/mL (≈ 21.7 µM); for `O=C(O)c1ccc(Nc2ccc(F)c(F)c2)c([N+](=O)[O-])c1`, above 44.1 µg/mL; for `C=CCN(C(=O)COC(=O)c1cc[n+]([O-])cc1)c1nc(-c2ccccc2)cs1`, 6.1 µg/mL (≈ 15.4 µM).

In turn, `CCC(C)NC(=O)Cn1nc(Cc2ccncc2)c2ccccc2c1=O` (configuration not stated) had a kinetic solubility above 52.6 µg/mL. For `Cc1ccc(S(=O)(=O)Nc2ccccc2CNC2CCCCC2)cc1` the value was above 53.8 µg/mL; for `CC(C)(C)NCCOc1ccc2ccccc2c1`, 26.8 µg/mL (≈ 110 µM); for `O=C(COC(=O)Cn1cnc2ccccc21)Nc1ccc(F)c(F)c1`, above 51.8 µg/mL. For `CC(=O)C1=C(O)C(=O)N(Cc2ccco2)C1c1cccc(F)c1` (configuration not stated) the value was above 47.3 µg/mL; for `N/C(=N/OC(=O)c1ccc(Cl)cc1)c1ncc([N+](=O)[O-])s1`, 0.2 µg/mL (≈ 0.612 µM); for `CSc1ncccc1C(=O)OCC(=O)NCCc1ccccc1`, 27.9 µg/mL (≈ 84.4 µM). `COc1cc(/C=C/C(=O)NC(=O)c2ccccc2O)ccc1O` returned a kinetic solubility above 47 µg/mL. In turn, `Cc1onc(-c2c(F)cccc2Cl)c1C(=O)NCCN1CCNC1=O` returned a solubility (kinetic) above 55 µg/mL. The compound `CCOC(=O)c1cc(CC)sc1/N=C/C1C(=O)CCCC1=O` yielded a kinetic solubility of 19.5 µg/mL (≈ 60.7 µM).

Compound `CCOc1cccc2cc(C(=O)N3CCOCC3)c(=O)oc12` showed a kinetic solubility above 45.5 µg/mL. Take `O=C(CN1C(=O)NC2(CCCCCC2)C1=O)NCCc1ccccc1`: the solubility (kinetic) is above 51.5 µg/mL. For `O=C(COc1ccccc1F)OCC(=O)c1ccc([N+](=O)[O-])cc1` the value was 46.8 µg/mL (≈ 140 µM). The compound `CCOC(=O)c1nc(NCc2ccccc2)sc1C` registered a kinetic solubility of 9.5 µg/mL (≈ 34.4 µM). Regarding `CC1CCN(C2=NC(=O)/C(=C/c3ccccc3F)S2)CC1`, the solubility (kinetic) was determined as 14.3 µg/mL (≈ 47 µM).

`Cc1cc2c(cc1C)C(c1cccc(F)c1)CC(=O)N2` (configuration not stated) came in with a kinetic solubility below 0.6 µg/mL. In turn, `Cc1ccc(NS(=O)(=O)N2CCOCC2)cc1Cl` yielded a kinetic solubility above 43.6 µg/mL.

`Nc1ccccc1SCC(=O)Nc1cccc2ccccc12` returned a kinetic solubility of 32.6 µg/mL (≈ 106 µM).

Take `Cc1cc(S(=O)(=O)NCc2ccc(N3CCN(C)CC3)cc2)c(C)s1`: the kinetic solubility was 15.8 µg/mL (≈ 41.6 µM). With `CNC(=O)/C(C#N)=C/c1c(N2CCN(C)CC2)nc2c(C)cccn2c1=O`, the kinetic solubility is above 55 µg/mL. Next, `Cc1ccc(C(C)C)c(OCCn2ccnc2C)c1.O=C(O)C(=O)O`: 46.7 µg/mL; `CC(NC(=O)CN1CCN(c2ccc(Cl)cc2)CC1)c1ccccc1` (configuration not stated): 8.8 µg/mL (≈ 24.6 µM); `COCCNC(=S)N1CCN(C)CC1.O=C(O)C(=O)O`: above 46.1 µg/mL. Regarding `COc1cccc(OC)c1OCCNCC1COc2ccccc2O1.Cl` (configuration not stated), the solubility (kinetic) is above 57.3 µg/mL.

`CC1CCCC(C)N1C(=O)COC(=O)c1ccccc1O` (configuration not stated) showed a kinetic solubility of 42.3 µg/mL (≈ 145 µM). Next, `O=C(OCC(=O)N1CCOCC1)c1ccc(Br)cc1`: above 49.2 µg/mL; `Cc1cc(C)cc(OCC(=O)OCc2cc([N+](=O)[O-])cc3c2OCOC3)c1`: 3.9 µg/mL (≈ 10.4 µM). Next, `CC1(C)CC(=O)C(C(O)c2cccc([N+](=O)[O-])c2)C(C)(C)N1` (configuration not stated): 44.9 µg/mL (≈ 147 µM); `COc1ccc2cc(-c3ccon3)ccc2c1`: below 0.5 µg/mL. `O=C(COC(=O)c1ccco1)NCCc1ccc(Cl)cc1` registered a kinetic solubility above 46.2 µg/mL. Next, `CCCNC(=O)COC(=O)c1c2c(nc3ccccc13)CCC2`: 45.5 µg/mL (≈ 146 µM); `COc1ccc(C(=O)Nc2ccc(CN3CCCCC3)cc2)cc1`: above 48.7 µg/mL. For `O=C(OCC(=O)N1CCCCC1)c1cc(S(=O)(=O)N2CCOCC2)c(Cl)cc1Cl` the value was 67.7 µg/mL (≈ 145 µM); for `N#Cc1ccccc1S(=O)(=O)N1CCN(C(=O)C2CCCC2)CC1`, above 52.1 µg/mL. For `O=C(Cn1cc([N+](=O)[O-])ccc1=O)N1CCc2ccccc2C1` the value was above 47 µg/mL.

In turn, `O=[N+]([O-])c1ccc(NCc2ccc(Cl)cc2)c2ccncc12` came in with a solubility (kinetic) of 0.3 µg/mL (≈ 0.956 µM). In turn, `CC1(C)CC(CC(=O)O)CC(C)(C)N1.Cl` gave a solubility (kinetic) above 35.4 µg/mL. For `COc1cccc(CC(=O)Nc2ccc3c(c2)CCC3)c1` the value was 8.3 µg/mL (≈ 29.5 µM); for `O=S(=O)(Nc1ccncc1Cl)c1cccc(Cl)c1Cl`, above 50.6 µg/mL.

For the compound `CC1CCN(CC(=O)N2c3ccccc3CC2C)CC1.Cl` (configuration not stated), the kinetic solubility is above 46.3 µg/mL. Next, `Fc1ccc2nc3c(nc2c1)CCCC3`: 13.3 µg/mL (≈ 65.8 µM). For `Cc1cccc(C)c1NC(=O)CNC(=O)c1ccccc1` the value was 24.9 µg/mL (≈ 88.2 µM).

In turn, `NC(=O)c1ccc(/C=N/O)[n+](Cc2ccccc2)c1.[Br-]` came in with a solubility (kinetic) of 33.9 µg/mL. For `CC(C)(C)N(Cc1ccccc1)C(=O)COC(=O)c1ccc2ccccc2n1` the value was 3 µg/mL (≈ 7.97 µM); for `O=c1[nH]c2ccccc2nc1-c1ccccc1`, 3.9 µg/mL (≈ 17.5 µM). Compound `O=C(COc1ccc(Cl)cc1)NCCCNC(=O)c1ccccn1` registered a kinetic solubility of 50.5 µg/mL (≈ 145 µM). With `CN1CCN/C1=C(/C(Cl)=C(Cl)Cl)[N+](=O)[O-]`, the solubility (kinetic) is above 40.9 µg/mL.

By solubility (kinetic) is commonly meant solubility judged after dilution from a stock solution rather than from solid.
